Laboratory results as given in patent publication US9045423B2, “Prophylactic and/or therapeutic agent for anemia comprising tetrahydroquinoline compound as active ingredient” (KOWA COMPANY, LTD., priority 2009, dated 2015).

How the values were obtained:
[1] = system: K562 cells, a human proerythroblast cell line; assay: Hemoglobin production in K562 cells (fluorescence of the porphyrin ring); assay type: cell-based; conditions: for enhancement of hemoglobin production: drug concentration 20 μM; for activity at 6 µM: Homo sapiens, K562, 144 h, 6 μM test compound, 3 + 3 days incubation, non-stimulated state without compound = 100, read-out: amount of hemoglobin, % of control (6 μM)
Procedure: K562 cells (obtained from ATCC), which is a human proerythroblast cell line, were inoculated at a concentration of 1×10^5 cells/1 mL in each well of a 24-well plate, using complete medium (RPMI-1640 medium containing 10% bovine fetal serum), and 1 μL of a test compound at a 1000-fold concentration was added to each well. Subsequently, the cells were incubated for 3 days in a CO2 incubator (37° C., 5% CO2). The medium was exchanged, and the cells were further incubated for 3 days. The cells were collected and counted. Subsequently, the amount of hemoglobin produced in the cells was determined by adjusting the number of cells to 3×10^5 cells, and measuring the fluorescence of the porphyrin ring. That is, the cells collected by centrifugation were suspended in 500 μL of 2 M oxalic acid, and were heated to boil for 30 minutes. The cells were cooled, and then the fluorescence intensity was measured by using a fluorescence microplate reader (Spectra MAX GeminiEM; Molecular Devices Corp.) ([…]). The amount of hemoglobin in a non-stimulated state where no compound was added was designated as 100-, and the amount of hemoglobin (% of control) produced as induced by each of the compounds was determined.

[2] = system: HepG2 cells derived from human liver cancer; assay: EPO production in HepG2 cells (EPO ELISA of culture supernatant); assay type: cell-based; conditions: for activity at 3 µM / activity at 10 µM: Homo sapiens; for activity at 3 µM: HepG2, 3 μM test compound, 48 hrs, 4% oxygen, non-stimulated state without compound = 100%, read-out: amount of EPO production, % of control (3 μM); for activity at 10 µM: HepG2, 48 h, read-out: enhancement of EPO production
Procedure: HepG2 cells derived from human liver cancer were inoculated in an amount of 5×10^4 cells per well on a 48-well plate, using minimum essential medium (MEM, Sigma-Aldrich Company) containing 10% bovine fetal serum. On the next day, the medium was exchanged with Dulbecco's modified eagle medium (DMEM (Sigma-Aldrich Company)) containing 10% bovine fetal serum without Phenol Red. Then, a test compound dissolved in DMSO was added thereto to obtain a final concentration of 3 μM or 10 μM, and the amount of medium was adjusted to 400 μL per well. The cells were incubated for 48 hrs in a CO2 incubator in which the oxygen concentration was adjusted to 4%, and then the culture supernatant was collected. The EPO concentration in the culture supernatant was immediately measured using an EPO ELISA kit (Roche Diagnostics GmbH). The method was carried out according to the operation manual.
The amount of EPO production in a non-stimulated state where no compounds were added, was designated as 100%, and the amount of EPO production (% of control) induced by each of the compounds was determined.

[3] = final concentration 10 μM, non-stimulated state = 100%

Structure (SMILES) | activity at 6 µM [1] [%] | activity at 3 µM [2] [%] | further results
CC(=O)N1c2ccc(N3CCN(C(=O)C(C)C)CC3)cc2C(Nc2ccc(NS(C)(=O)=O)cc2)CC1C (centres unmarked) [Compound 111, 1-Acetyl-6-[(4-isopropylcarbonyl)-piperazino]-4-[(4-methanesulfonyl-aminophenyl)amino]-2-methyl-1,2,3,4-tetrahydroquinoline] | – | – | enhancement of hemoglobin production [1]: 171%
CC(=O)N1c2ccc(C(=O)NCCOCCOCCOCCC(=O)OC(C)(C)C)cc2C(Nc2ccc(N3CCOCC3)cc2)CC1C (centres unmarked) [Compound 149, Tert-butyl 12-{1-Acetyl-2-methyl-4-[(4-morpholinophenyl)-amino]-1,2,3,4-tetrahydroquinoline-6-carboxamido}-4,7,10-trioxadodecanoate] | 367 | 190 | –
CC(=O)N1c2ccc(C(=O)NC#N)cc2C(Nc2ccc(Cl)cc2)CC1C (centres unmarked) [Compound 128, 1-Acetyl-4-[(4-chlorophenyl)-amino]-N-cyano-2-methyl-1,2,3,4-tetrahydroquinoline-6-carboxamide] | 120 | 176 | –
CC(=O)N1c2c(Br)cccc2C(Nc2ccccc2)CC1C (centres unmarked) [Compound 63, 1-Acetyl-8-bromo-4-phenylamino-2-methyl-1,2,3,4-tetrahydroquino-line] | – | – | enhancement of hemoglobin production [1]: 260%
CC(=O)N1c2ccc(C(=O)Nc3ccccc3)cc2C(Nc2ccc(Cl)cc2)CC1C (centres unmarked) [Compound 130, 1-Acetyl-4-[(4-chlorophenyl)-amino]-2-methyl-N-phenyl-1,2,3,4-tetrahydroquinoline-6-carboxamide] | 172 | 133 | –
CCOC(=O)Cc1ccc(NC2CC(C)N(C(C)=O)c3ccc(NS(C)(=O)=O)cc32)cc1 (centres unmarked) [Compound 99, 1-Acetyl-6-methanesulfonylamino-2-methyl-4-[(4-ethoxycarbonyl-methylphenyl)amino]-1,2,3,4-tetra-hydroquinoline] | – | – | enhancement of hemoglobin production [1]: 306%
CC(=O)N1c2ccc(N3CCOCC3)cc2C(Oc2ccc(Cl)cc2)CC1C (centres unmarked) [Compound 152, 1-Acetyl-4-(4-chloro-phenoxy)-2-methyl-6-morpholino-1,2,3,4-tetrahydroquinoline] | 337 | 186 | –
CC(=O)N1c2ccc(C(=O)O)cc2C(Nc2ccc(-c3csc(C)n3)cc2)CC1C (centres unmarked) [Compound 163, 1-Acetyl-2-methyl-4-{[4-(2-methylthiazol-4-yl)-phenyl]amino}-1,2,3,4-tetrahydroquinoline-6-carboxylic acid] | 172 | 128 | –
CC(=O)N1c2ccc(C(=O)O)cc2C(Nc2ccc(C3CCCCC3)cc2)CC1C (centres unmarked) [Compound 145, 1-Acetyl-4-[(4-cyclohexylphenyl)-amino]-2-methyl-1,2,3,4-tetrahydroquinoline-6-carboxylic acid] | 414 | – | activity at 10 µM [2, 3]: 157%
CC(=O)N1c2ccc(C(N)=O)cc2C(Nc2ccc(C3CCOCC3)cc2)CC1C (centres unmarked) [Compound 156, 1-Acetyl-2-methyl-4-{[4-(tetrahydro-2H-pyran-4-yl)phenyl]amino}-1,2,3,4-tetrahydroquinoline-6-carboxamide] | 371 | – | –
CC(=O)N1c2ccc(C(=O)Nc3ccccn3)cc2C(Nc2ccc(N3CCOCC3)cc2)CC1C (centres unmarked) [Compound 177, 1-Acetyl-2-methyl-4-[(4-morpholinophenyl)-amino]-N-(pyridin-2-yl)-1,2,3,4-tetrahydroquinoline-6-carboxamide] | 353 | 265 | –
CC(=O)N1c2ccc(N3CC(C)OC(C)C3)cc2C(Nc2ccc(NS(C)(=O)=O)cc2)CC1C (centres unmarked) [Compound 110, 1-Acetyl-6-[(2,6-dimethyl)-morpholino]-4-[(4-methanesulfonylaminophenyl)-amino]-2-methyl-1,2,3,4-tetrahydroquinoline] | – | 207 | –
CC(=O)N1c2ccc(C(=O)O)cc2C(Nc2ccc(Cl)cc2)CC1C (centres unmarked) [Compound 42, 1-Acetyl-4-[(4-chlorophenyl)-amino]-2-methyl-1,2,3,4-tetrahydro-quinoline-6-carboxylic acid] | – | – | enhancement of EPO production [2, 3]: 138%
CC(=O)N1c2ccc(C(=O)O)cc2C(Oc2ccc(N3CCOCC3)cc2)CC1C (centres unmarked) [Compound 139, 1-Acetyl-2-methyl-4-(4-morpho-linophenoxy)-1,2,3,4-tetrahydro-quinoline-6-carboxylic acid] | 193 | – | –
CC(=O)N1c2ccc(C(=O)O)cc2C(Oc2ccc(Cl)cc2)CC1C (centres unmarked) [Compound 141, 1-Acetyl-4-(4-chlorophenoxy)-2-methyl-1,2,3,4-tetrahydro-quinoline-6-carboxylic acid] | 209 | – | –
CC(=O)N1c2ccc(N3CCN(C(C)C)CC3)cc2C(Nc2ccc(N3CCOCC3)cc2)CC1C (centres unmarked) [Compound 159, 1-Acetyl-6-(4-isopropylpiperazin-1-yl)-2-methyl-4-[(4-morpholinophenyl)-amino]-1,2,3,4-tetrahydroquinoline] | – | 292 | –
CC(=O)N1c2ccccc2[C@H](OCc2ccccc2)C[C@@H]1C (relative stereo) [Compound 36, 1-Acetyl-2-methyl-4-benzyloxy-1,2,3,4-tetrahydroquinoline] | – | – | enhancement of hemoglobin production [1]: 143%
CC(=O)N1c2ccc(NS(C)(=O)=O)cc2C(Nc2ccc(N3CCOCC3)cc2)CC1C (centres unmarked) [Compound 98, 1-Acetyl-6-methanesulfonylamino-2-methyl-4-[(4-morpholinophenyl)-amino]-1,2,3,4-tetrahydroquin-oline] | – | – | enhancement of hemoglobin production [1]: 142%
CC(=O)N1c2ccc(C(=O)NCCOCCOCCOCCC(=O)OC(C)(C)C)cc2C(Nc2ccc(Cl)cc2)CC1C (centres unmarked) [Compound 148, Tert-butyl 12-{1-Acetyl-4-[(4-chlorophenyl)-amino]-2-methyl-1,2,3,4-tetrahydroquinoline-6-carboxamido}-4,7,10-trioxadodecanoate] | 506 | – | –
CC(=O)N1c2ccc(C(N)=O)cc2[C@H](Nc2ccc(NS(C)(=O)=O)cc2)C[C@@H]1C (relative stereo) [Compound 102, 1-Acetyl-4-[(4-methanesulfonyl-aminophenyl)amino]-2-methyl-1,2,3,4-tetrahydroquinoline-6-carbox-amide] | – | – | enhancement of hemoglobin production [1]: 115%
CNC(=O)c1ccc2c(c1)C(Nc1cccc(N3CCOCC3)c1)CC(C)N2C(C)=O (centres unmarked) [Compound 180, 1-Acetyl-N,2-dimethyl-4-[(3-morpholinophenyl)amino]-1,2,3,4-tetrahydroquinoline-6-carboxamide] | 150 | – | –
CNC(=O)c1ccc2c(c1)C(Nc1ccc(-c3ncco3)cc1)CC(C)N2C(C)=O (centres unmarked) [Compound 170, 1-Acetyl-N,2-dimethyl-4-{[4-(oxazol-2-yl)phenyl]-amino}-1,2,3,4-tetrahydroquinoline-6-carboxamide] | – | 128 | –
CC(=O)N1c2ccc(-c3cnc(C)[nH]3)cc2C(Nc2ccc(Cl)cc2)CC1C (centres unmarked) [Compound 127, 4-{1-Acetyl-4-[(4-chlorophenyl)-amino]-2-methyl-1,2,3,4-tetra-hydroquinolin-6-yl}-2-methyl-1H-imidazole] | – | 96 | activity at 10 µM [2, 3]: 130%
CCOC(=O)c1ccc2c(c1)C(Nc1ccc(C3CCOCC3)cc1)CC(C)N2C(C)=O (centres unmarked) [Compound 153, Ethyl 1-acetyl-2-methyl-4-{[4-(tetrahydro-2H-pyran-4-yl)-phenyl]amino}-1,2,3,4-tetrahydroquinoline-6-carboxylate] | 294 | – | –
COC(=O)CCCc1ccc(NC(=O)c2ccc3c(c2)C(Nc2ccc(Cl)cc2)CC(C)N3C(C)=O)cc1 (centres unmarked) [Compound 150, Methyl 4-{4-{1-Acetyl-4-[(4-chlorophenyl)-amino]-2-methyl-1,2,3,4-tetrahydroquinoline-6-carboxamido}-phenyl}butanoate] | 534 | – | –
CC(=O)N1c2c(F)cccc2[C@H](Nc2ccccc2F)C[C@@H]1C (relative stereo) [Compound 4, 1-Acetyl-8-fluoro-4-[(2-fluoro-phenyl)amino]-2-methyl-1,2,3,4-tetrahydroquinoline] | – | – | enhancement of hemoglobin production [1]: 162%
CNC(=O)c1ccc2c(c1)C(Nc1ccc(C3CCOCC3)cc1)CC(C)N2C(C)=O (centres unmarked) [Compound 155, 1-Acetyl-N,2-dimethyl-4-{[4-(tetrahydro-2H-pyran-4-yl)phenyl]amino}-1,2,3,4-tetrahydroquino-line-6-carboxamide] | 387 | – | –
